Here are results for two compounds from patent publication US9783551B2, “Pyranochromenyl phenol derivative, and pharmaceutical composition for treating metabolic syndrome or inflammatory disease” (GLACEUM, INC., priority 2013, dated 2017).

Structures are written as SMILES.

In series [1] the test system is DIO mice. The series is described as follows: Anti-obesity effect for DIO mice (body weight). It counts as in vivo, C57BL/6 mice. Conditions: Mus musculus, 672 h; 4 weeks, 150 mg/kg, oral gavage once daily. The procedure, abridged:
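Female C57BL/6 mice made obese by ≥10 weeks of high-fat diet; compounds suspended in 0.5% methyl cellulose and given by oral gavage once daily for 28 days. Body weight measured twice weekly; effect (%) = (control weight − treated weight)/control weight × 100.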

Series [2] has as its system DIO mice. The series is described as follows: Organ weights and blood biochemistry of DIO mice after 28 days of administration. Type of series: in vivo, C57BL/6 mice. Conditions: 150 mg/kg. Here is the method: Five-week-old female C57BL/6 mice (Narabio Co., Ltd.) were purchased and fed with only high-fat diet for at least 10 weeks to produce diet induced obesity ([…]) mice. Samples were exactly taken from Preparation Example 1 (glabridin) and the compounds of Examples of the present invention (Compounds 1 to 5, 7, 9, 11, 14 to 16, 21, and 23) according to the administration dose and put into Falcon tubes, 3 ml of a 0.5% methyl cellulose aqueous solution was added thereto and a vortex mixer was used to primarily mix the ingredients in a soft manner, and then a homogenizer (30,000 rpm, Ultra-Turrax® T10 Basic, IKA) was used to treat the sample for 3 minutes while 1.5 ml of a 0.5% methyl cellulose aqueous solution was added thereto. The sample thus prepared was administered through oral gavage using a disposable plastic syringe once daily for 28 days (4 weeks). The body weight was measured twice a week while the DIO mice were bred in this manner. Based on the data thus calculated, the anti-obesity effect (%) was calculated according to the equation defined as follows. Anti-Obesity Effect={(Body weight of control group)−(Body weight of experimental group)}/(Body weight of control group)×100
After the experiment was performed for 28 days (4 weeks) as described above, blood was simultaneously taken while the experimental animal was finally sacrificed, and each of the organs (liver, heart, kidney, pancreas, fat tissues and the like) was removed to measure the weight and observe peculiar matters.
In Table 3, { }, ( ) and the like were used in order to differentiate experiments which had been performed at different periods. Experiments without the parenthesis were those simultaneously performed under the same conditions.

The test system of another series is BV2 microglia cells. In words: BV2 cell NO assay (LPS-induced NO production, Griess reagent). Conditions: Mus musculus, BV-2, LPS 1 μg/ml, 24 hours. Type of series: cell-based. The procedure, abridged: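 BV2 cells; NO suppression tested only at concentrations showing no cytotoxicity in an MTT assay (0.5 mg/ml MTT, absorbance 540 nm). NO read by absorbance at 540 nm; suppression rate taken as the difference in NO produced between control and treated groups; mean of three repeats.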
On the technique in general: Griess reagent forms a coloured azo dye with nitrite.

Another series concerns RAW264.7 macrophages. In words: RAW264.7 macrophage NO assay (LPS-induced NO production, Griess reagent). Type of series: cell-based. Conditions: for IC50: Mus musculus, RAW264.7, NO production, LPS 1 μg/ml, 24 hours; for effect of suppressing the production of NO: RAW264.7 macrophages, in words. The gist of the method: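 MTT (0.5 mg/ml, 4 h) viability read at 540 nm set non-cytotoxic compound concentrations for the NO test. NO suppression, read by absorbance at 540 nm, was the difference in NO between control and treated groups; values are means of three repeats.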

Series [3] in a line: Chemical stability in 1% HCl in MeOH (HPLC). It counts as physicochemical. Conditions: for stability in words: until 3 days (72 hours). Here is the method: (§1) The relative chemical stability of glabridin of Preparation Example 1, Example 3 (Compound 4), Example 4 (Compound 5) and Example 14 (Compound 15) were compared with each other. That is, 50 mg of each of glabridin, Compound 4, Compound 5, and Compound 15 was exactly weighed, dissolved in 50 ml of 1% HCl in MeOH and 10 ml of 1% NaOH in MeOH, and the concentrations of the compounds were examined by HPLC at each time level of 0, 8 hrs, 12 hrs, 24 hrs, 48 hrs, and 72 hrs. At this time, the concentrations of the compounds remaining in 1% HCl in MeOH and 1% NaOH in MeOH were determined using an internal standard (Compound 14 of Example 13). That is, 10 mg of Compound 14 was exactly weighed and dissolved in 100 ml of acetonitrile, 9 ml of this solution was mixed with 1 ml of the sample aliquoted at each time level, the mixture was analyzed by HPLC, and the concentrations of the compounds in the internal standard and in the above samples were determined by comparing the initial values.
(§2) The concentrations of the compounds remaining in 1% HCl in MeOH and 1% NaOH in MeOH at each time level are in the following Table 8 and FIG. 7 and the following Table 9 and FIG. 8, respectively.
(§3) The numerical values exceeding 100% in the following Tables 8 and 9 show those measured at a concentration is slightly higher than the initial measurement value, and this is due to the fact that an average value of the measured values was simply shown without considering a statistical error generated during the measurement. Since the measured value of about 95% or more is deemed to have practically no change in concentration, it may be seen that the compounds of the present invention are excellent in chemical stability.

A short description of series [4]: Chemical stability in 1% NaOH in MeOH (HPLC). Conditions: for stability in words: until 3 days (72 hours). It counts as physicochemical. Here is the method: as §1, §2, §3

Usually inhibition in vivo stands for the change of the read-out against control, counted positive when it falls. A higher inhibition in vivo goes with a strong effect. In general, IC50 refers to the midpoint of a concentration-inhibition curve. Low values mean inhibition by little substance, high ones a need for much substance. Take `CCOc1ccc(C2COc3c(ccc4c3CCC(C)(C)O4)C2)c(O)c1` (stereo not shown) [Compound 15, 3-(2-hydroxy-4-ethoxyphenyl)-8,8-dimethyl-2,3,4,8,9,10-hexahydropyrano [2,3-f] chromene]: the inhibition in vivo at 150 mg/kg in the series with DIO mice [1] turned out to be 14%. The “ALT (U/L)” value in the series with DIO mice [2] (experiment without parenthesis) is 52 U/L. Also, the “AST (U/L)” value in the series on DIO mice [2] (experiment without parenthesis) is reported as 143 U/L. In addition, the BMI in the series on DIO mice [2] (experiment without parenthesis) amounted to 3.6. Besides, the “FFA (μEq/L)” value in the series on DIO mice [2] (experiment without parenthesis) is on record as 1760 μEq/L. In addition, the “Fat (g), weight of fat removed around the epididymis and the kidney” value in the series with DIO mice [2] (experiment without parenthesis) turned out to be 2.02 g. Besides, the “LDL” value in the series with DIO mice [2] (experiment without parenthesis) was 10 mg/dL. In addition, in the series on DIO mice [2] (experiment without parenthesis), the “Liver (g), weight of liver” value came to 1.28 g. In addition, the IC50 is 2.7 µM in the series with BV2 microglia cells and 6.8 µM with RAW264.7 macrophages. Moreover, the “effect of suppressing the production of NO” value with RAW264.7 macrophages is recorded as “excellent”. Further, the “concentration of compound remaining” value in series [3] (0) came out at 100%; in series [3] (8 h), 98%; in series [3] (24 h) it was 100%; in series [3] (48 h), 98%; in series [3] (72 h) it was 100%; in series [4] (0), 100%. Also, the “concentration of compound remaining” value was 100% in series [4] (8 h), 100% in series [4] (24 h), 98% in series [4] (48 h) and 100% in series [4] (72 h). Moreover, the stability in words result in series [3] and in series [4] was “very stable” each time.
`CCCc1ccc(C2COc3c(ccc4c3CCC(C)(C)O4)C2)c(O)c1` (stereo not shown) [Compound 5, 3-(2-hydroxy-4-propylphenyl)-8,8-dimethyl-2,3,4,8,9,10-hexahydropyrano [2,3-f] chromene] came in with an inhibition in vivo at 150 mg/kg with DIO mice [1] of 19%. Further, the “ALT (U/L)” value with DIO mice [2] (( ) experiment) is recorded as “(50) U/L”. Besides, in the series on DIO mice [2] (( ) experiment), the “AST (U/L)” value was “(131) U/L”. Further, the BMI result in the series with DIO mice [2] (( ) experiment) is reported as “(3.0)”. The “FFA (μEq/L)” value in the series on DIO mice [2] (( ) experiment) was “(2310) μEq/L”. Moreover, the “Fat (g), weight of fat removed around the epididymis and the kidney” value in the series on DIO mice [2] (( ) experiment) was “(1.04) g”. In the series with DIO mice [2] (( ) experiment), the “LDL (mg/dL)” value is on record as “(12) mg/dL”. Further, the “Liver (g), weight of liver” value in the series with DIO mice [2] (( ) experiment) was “(1.15) g”. Also, the values for the half-inhibitory concentration (IC50) in the series with BV2 microglia cells and with RAW264.7 macrophages were 3.8 µM and 5.2 µM, respectively. The “effect of suppressing the production of NO” value with RAW264.7 macrophages is reported as “excellent”. In addition, the “concentration of compound remaining” value amounted to 100% in series [3] (0); 102% in series [3] (8 h); 102% in series [3] (24 h); 101% in series [3] (48 h); 101% in series [3] (72 h); 100% in series [4] (0). Besides, the “concentration of compound remaining” value in series [4] (8 h) was 101%; in series [4] (24 h), 102%; in series [4] (48 h), 100%; in series [4] (72 h), 102%. Further, the stability in words result in series [3] and in series [4] was “very stable” each time.
